Source: US11560372B2, “Heterocyclic compounds useful as modulators of acetylcholine receptors” (TAKEDA PHARMACEUTICAL COMPANY LIMITED, priority 2017, dated 2023)

Biological target: T1, MDR1 (Homo sapiens, UniProt P08183)
T1 construct: expressed in transfected cells
Assay: MDR1 membrane permeability test
Type: in vitro ADME
Settings: pH 7.4, efflux ratio (ER), Papp B to A / A to B, human MDR1-expressing LLC-PK1 cells, read-out: MDR1 substrate screening 1 μM (MDRSUB1)/Ratio (NUMBER)
Method: MDR1 Membrane Permeability Test
When MDR1 is expressed in excess in LLC-PK1 cell, which is a polar cell, MDR1 is localized in apical membrane (A), thus promoting transcellular transport from the basement membrane side (B) toward direction A. When a ratio to the transcellular transport in the opposite direction is taken and a ratio to a control cell in which a mock vector has been introduced is further taken, an efflux ratio of MDR1 to simple diffusion (corrected efflux ratio) is calculated. Similarly, when a brain/plasma concentration ratio in Mdr1(−/−) mouse is divided by a brain/plasma concentration ratio in wild-type mouse, an efflux ratio of Mdr1 to simple diffusion in BBB (Kp, brain ratio, higher value means lower central nervous system permeability) is calculated. Adachi Y. et al. (Reference 1) has reported a positive correlation between corrected efflux ratio and Kp, brain ratio (FIG. 5(C)), and efflux ratio in MDR1 expressing cell and Kp, brain ratio (FIG. 5(B)).
To confirm the central nervous system permeability of the compounds of the present invention, a MDR1 membrane permeability test was performed by the following method.
Human MDR1-expressing LLC-PK1 cells were cultured according to the report of Takeuchi et al. (Reference 2). Human MDR1-expressing LLC-PK1 cells were cultured in 10% fetal bovine serum (Invitrogen), 500 μg/ml G418 (Invitrogen), 150 ng/ml colchicine-containing M199 medium (Invitrogen) under 5% CO2 conditions at 37° C.
Transcellular transport was performed according to the report of Sugimoto et al. (Reference 3). The cells were cultured for 3 days on HTS Transwell (registered trademark) 96 well permeable support (pore size 0.4 μm, 0.143 cm^2 surface area, Corning Life Sciences) having polyethylene terephthalate membrane on which the cells had been seeded at 3.45×10^4 cells/well. After preincubation in M199 medium (containing 10 mmol/L HEPES, 1% BSA, pH 7.4) for 30 min, a drug solution (10 μmol/L digoxin, 200 μmol/L LY, […]) dissolved in M199 medium was added to the apical side or basolateral side of the Transwell by 75 or 250 μL each and the cells were cultured under 5% CO2 conditions at 37° C. After 1 hr, the sample was collected from the side opposite to the side where the drug solution was added, and the concentration of the test compound was measured by LC-MS/MS. As an internal standard substance, 100 ng/mL alprenolol and diclofenac were used. The analysis conditions were as follows.
Papp, A to B and Papp, B to A (apparent permeability) were calculated from the formula (1), and the efflux ratio (ER) was calculated from the formula (2).

T1 sequence (P08183 whole entry): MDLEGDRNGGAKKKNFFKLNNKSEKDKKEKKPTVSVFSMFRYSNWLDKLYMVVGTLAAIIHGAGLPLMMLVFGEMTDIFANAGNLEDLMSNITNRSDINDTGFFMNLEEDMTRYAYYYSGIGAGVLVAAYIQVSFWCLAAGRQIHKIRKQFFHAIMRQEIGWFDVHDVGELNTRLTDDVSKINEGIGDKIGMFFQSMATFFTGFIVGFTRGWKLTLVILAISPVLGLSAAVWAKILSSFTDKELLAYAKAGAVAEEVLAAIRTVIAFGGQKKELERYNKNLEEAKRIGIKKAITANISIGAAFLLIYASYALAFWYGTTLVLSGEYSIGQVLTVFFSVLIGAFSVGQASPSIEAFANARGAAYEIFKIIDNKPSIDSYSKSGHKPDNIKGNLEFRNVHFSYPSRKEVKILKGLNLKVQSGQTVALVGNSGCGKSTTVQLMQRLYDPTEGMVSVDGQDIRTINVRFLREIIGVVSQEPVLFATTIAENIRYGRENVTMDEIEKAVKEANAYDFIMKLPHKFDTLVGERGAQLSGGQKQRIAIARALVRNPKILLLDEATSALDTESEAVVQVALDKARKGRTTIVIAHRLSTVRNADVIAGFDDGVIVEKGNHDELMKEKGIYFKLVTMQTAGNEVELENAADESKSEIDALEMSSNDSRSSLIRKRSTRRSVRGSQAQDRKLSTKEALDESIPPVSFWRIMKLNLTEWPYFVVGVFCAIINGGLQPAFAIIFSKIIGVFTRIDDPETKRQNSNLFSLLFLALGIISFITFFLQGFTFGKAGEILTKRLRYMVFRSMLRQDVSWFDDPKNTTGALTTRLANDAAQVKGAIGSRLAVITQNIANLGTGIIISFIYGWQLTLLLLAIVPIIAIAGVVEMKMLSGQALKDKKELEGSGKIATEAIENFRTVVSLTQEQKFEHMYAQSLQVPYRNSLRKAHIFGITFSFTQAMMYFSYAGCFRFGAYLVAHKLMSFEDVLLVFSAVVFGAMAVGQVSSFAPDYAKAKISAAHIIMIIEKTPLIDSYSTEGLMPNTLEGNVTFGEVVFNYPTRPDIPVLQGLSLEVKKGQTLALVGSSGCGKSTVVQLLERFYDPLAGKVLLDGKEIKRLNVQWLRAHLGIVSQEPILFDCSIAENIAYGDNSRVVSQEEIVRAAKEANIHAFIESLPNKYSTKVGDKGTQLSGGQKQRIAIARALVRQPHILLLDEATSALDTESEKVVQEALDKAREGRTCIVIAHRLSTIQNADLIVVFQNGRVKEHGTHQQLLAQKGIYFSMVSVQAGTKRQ

Structure (SMILES) | efflux ratio at 1 hr, 1 μM
Cc1c(Cc2ccc(C(=O)NC3CC(F)C3)cc2)cc2c(=O)n([C@H]3CCOC[C@@H]3O)cnc2c1C (stereo partly drawn) [Example 46, 1,5-anhydro-2,3-dideoxy-3-(6-(4-((3-fluorocyclobutyl)-carbamoyl)benzyl)-7,8-dimethyl-4-oxoquinazolin-3 (4H)-yl)-L-threo-pentitol] | 18
Cc1c(Cc2ccc(C(=O)N3CC(O)C3)cc2)cc2c(=O)n([C@H]3CCOC[C@@H]3O)cnc2c1C [Example 40, 1,5-anhydro-2,3-dideoxy-3-(6-(4-((3-hydroxyazetidin-1-yl)carbonyl)benzyl)-7,8-dimethyl-4-oxoquinazolin-3 (4H)-yl)-L-threo-pentitol] | 12
COC(C)(C)CNC(=O)c1ccc(Cc2cc3c(=O)n([C@H]4CCOC[C@@H]4O)cnc3c(C)c2C)cc1 [Example 31, 1,5-anhydro-2,3-dideoxy-3-(6-(4-((2-methoxy-2-methylpropyl)carbamoyl)benzyl)-7,8-dimethyl-4-oxoquinazolin-3 (4H)-yl)-L-threo-pentitol] | 12
Cc1c(Cc2ccc(C(=O)NC34CC(C3)C4)cc2)cc2c(=O)n([C@H]3CCOC[C@@H]3O)cnc2c1C [Example 42, 1,5-anhydro-3-(6-(4-(bicyclo[1.1.1]penta-1-ylcarbamoyl)benzyl)-7,8-dimethyl-4-oxoquinazolin-3 (4H)-yl)-2,3-dideoxy-L-threo-pentitol] | 5.9
Cc1ccc(Cc2cc3c(=O)n([C@H]4CCOC[C@@H]4O)cnc3c(C)c2C)cn1 [Example 7, 1,5-anhydro-2,3-dideoxy-3-(7,8-dimethyl-6-((6-methylpyridin-3-yl)methyl)-4-oxoquinazolin-3(4H)-yl)-L-threo-pentitol] | 3.5
Cc1c(Cc2ccc(C(=O)NC3CCOCC3)cc2)cc2c(=O)n([C@H]3CCOC[C@@H]3O)cnc2c1C [Example 32, 1,5-anhydro-2,3-dideoxy-3-(7,8-dimethyl-4-oxo-6-(4-(tetrahydro-2H-pyran-4-ylcarbamoyl)benzyl)quinazolin-3 (4H)-yl)-L-threo-pentitol] | 26
Cc1c(Cc2ccc(C(=O)NC3(C(F)F)CC3)cc2)cc2c(=O)n([C@H]3CCOC[C@@H]3O)cnc2c1C [Example 35, 1,5-anhydro-2,3-dideoxy-3-(6-(4-((1-(difluoromethyl)-cyclopropyl)carbamoyl)benzyl)-7,8-dimethyl-4-oxoquinazolin-3 (4H)-yl)-L-threo-pentitol] | 9
Cc1c(Cc2ccc(-c3cn(C)nn3)cc2)cc2c(=O)n([C@H]3CCOC[C@@H]3O)cnc2c1F [Example 22, 1,5-anhydro-2,3-dideoxy-3-(8-fluoro-7-methyl-6-(4-(1-methyl-1H-1,2,3-triazol-4-yl)benzyl)-4-oxoquinazolin-3(4H)-yl)-L-threo-pentitol] | 12
CNC(=O)c1ccc(Cc2cc3c(=O)n([C@H]4CCOC[C@@H]4O)nnc3c(C)c2C)cc1F [Example 55, 1,5-anhydro-2,3-dideoxy-3-(6-(3-fluoro-4-(methylcarbamoyl)benzyl)-7,8-dimethyl-4-oxo-1,2,3-benzotriazin-3 (4H)-yl)-L-threo-pentitol] | 3.2
Cc1c(Cc2ccc(C(=O)N[C@H]3CCOC[C@@H]3O)c(F)c2)cc2c(=O)n([C@H]3CCOC[C@@H]3O)cnc2c1C [Example 88, 2-fluoro-N-((3R,4S)-3-hydroxytetrahydro-2H-pyran-4-yl)-4-((3-((3R,4S)-3-hydroxytetrahydro-2H-pyran-4-yl)-7,8-dimethyl-4-oxo-3,4-dihydroquinazolin-6-yl)methyl)benzamide] | 16
Cc1c(Cc2ccc(-n3cccn3)cc2)cc2c(=O)n([C@H]3CCOC[C@@H]3O)nnc2c1C [Comparative Example 2, 3-((3R,4S)-3-hydroxytetrahydro-2H-pyran-4-yl)-7,8-dimethyl-6-(4-(1H-pyrazol-1-yl)benzyl)-1,2,3-benzotriazin-4(3H)-one, reference compound] | 1.3
Cc1c(Cc2ccc(C(=O)NCCF)c(F)c2)cc2c(=O)n([C@H]3CCOC[C@@H]3O)cnc2c1C [Example 67, 1,5-anhydro-2,3-dideoxy-3-(6-(3-fluoro-4-((2-fluoroethyl)carbamoyl)benzyl)-7,8-dimethyl-4-oxoquinazolin-3 (4H)-yl)-L-threo-pentitol] | 5.3
Cc1c(Cc2ccc(C(=O)NCC(=O)N(C)C)cc2)cc2c(=O)n([C@H]3CCOC[C@@H]3O)cnc2c1C [Example 30, 1,5-anhydro-2,3-dideoxy-3-(6-(4-((2-(dimethylamino)-2-oxoethyl)carbamoyl)benzyl)-7,8-dimethyl-4-oxoquinazolin-3 (4H)-yl)-L-threo-pentitol] | 24
COc1cc2ncn([C@H]3CCOC[C@@H]3O)c(=O)c2cc1Cc1ccc(-c2ccn(C)n2)nc1 [Example 63, 1,5-anhydro-2,3-dideoxy-3-(7-methoxy-6-((6-(1-methyl-1H-pyrazol-3-yl)pyridin-3-yl)methyl)-4-oxoquinazolin-3 (4H)-yl)-L-threo-pentitol] | 35
Cc1c(Cc2ccc(-c3cnn(CC(F)(F)F)c3)nc2)cc2c(=O)n([C@H]3CCOC[C@@H]3O)cnc2c1C [Example 74, 1,5-anhydro-2,3-dideoxy-3-(7,8-dimethyl-4-oxo-6-((6-(1-(2,2,2-trifluoroethyl)-1H-pyrazol-4-yl)pyridin-3-yl)methyl)quinazolin-3(4H)-yl)-L-threo-pentitol] | 7.1
Cc1c(Cc2ccc(C(=O)NCC3CCOCC3)cc2)cc2c(=O)n([C@H]3CCOC[C@@H]3O)cnc2c1C [Example 51, 1,5-anhydro-2,3-dideoxy-3-(7,8-dimethyl-4-oxo-6-(4-((tetrahydro-2H-pyran-4-ylmethyl)carbamoyl)-benzyl)quinazolin-3 (4H)-yl)-L-threo-pentitol] | 27
Cc1c(Cc2ccc(C(=O)NC(C)(C)CO)cc2)cc2c(=O)n([C@H]3CCOC[C@@H]3O)cnc2c1C [Example 48, 1,5-anhydro-2,3-dideoxy-3-(6-(4-((1-hydroxy-2-methylpropan-2-yl)carbamoyl)benzyl)-7,8-dimethyl-4-oxoquinazolin-3 (4H)-yl)-L-threo-pentitol] | 24
CNC(=O)c1ccc(Cc2cc3c(=O)n([C@H]4CCOC[C@@H]4O)cnc3cc2OC)cc1F [Example 57, 1,5-anhydro-2,3-dideoxy-3-(6-(3-fluoro-4-(methylcarbamoyl)benzyl)-7-methoxy-4-oxoquinazolin-3 (4H)-yl)-L-threo-pentitol] | 16
Cc1c(Cc2ccc(-c3cn(C)nn3)nc2)cc2c(=O)n([C@H]3CCOC[C@@H]3O)cnc2c1Cl [Example 14, 1,5-anhydro-3-(8-chloro-7-methyl-6-((6-(1-methyl-1H-1,2,3-triazol-4-yl)pyridin-3-yl)methyl)-4-oxoquinazolin-3(4H)-yl)-2,3-dideoxy-L-threo-pentitol] | 22
COCCCNC(=O)c1ccc(Cc2cc3c(=O)n([C@H]4CCOC[C@@H]4O)cnc3c(C)c2C)cc1 [Example 38, 1,5-anhydro-2,3-dideoxy-3-(6-(4-((3-methoxypropyl)carbamoyl)benzyl)-7,8-dimethyl-4-oxoquinazolin-3 (4H)-yl)-L-threo-pentitol] | 15
Cc1c(Cc2ccc(C(=O)NCCCS(C)(=O)=O)c(F)c2)cc2c(=O)n([C@H]3CCOC[C@@H]3O)cnc2c1C [Example 70, 1,5-anhydro-2,3-dideoxy-3-(6-(3-fluoro-4-((3-(methylsulfonyl)propyl)-carbamoyl)benzyl)-7,8-dimethyl-4-oxoquinazolin-3 (4H)-yl)-L-threo-pentitol] | 13
Cc1nn(C)cc1-c1ccc(Cc2cc3c(=O)n([C@H]4CCOC[C@@H]4O)cnc3c(F)c2C)cn1 [Example 23, 1,5-anhydro-2,3-dideoxy-3-(6-((6-(1,3-dimethyl-1H-pyrazol-4-yl)pyridin-3-yl)methyl)-8-fluoro-7-methyl-4-oxoquinazolin-3(4H)-yl)-L-threo-pentitol] | 19
Cc1c(Cc2ccc(C(=O)NCCC(F)(F)F)cc2)cc2c(=O)n([C@H]3CCOC[C@@H]3O)cnc2c1C [Example 53, 1,5-anhydro-2,3-dideoxy-3-(7,8-dimethyl-4-oxo-6-(4-((3,3,3-trifluoropropyl)carbamoyl)-benzyl)quinazolin-3 (4H)-yl)-L-threo-pentitol] | 8.3
